Experimental data taken from the supplement of paper PMC10307832.

Columns and labels:
Assay in all cases: relative viability (nuclei count vs DMSO), 5 days (fraction); higher = more cells survive
[1] = compound: O=c1[nH]cc(F)c(=O)[nH]1 [5-Fluorouracil] + COc1cc2c(Oc3ccc(NC(=O)C4(C(=O)Nc5ccc(F)cc5)CC4)cc3F)ccnc2cc1OCCCN1CCOCC1 [Foretinib] (partner 0.25 µM)
Procedure, shortened: (§1)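 Dosing by pin tool came one day after lung cancer cell lines were seeded in 1536-well plates, using either one drug or a fixed anchor-drug dose plus five library-drug doses (not always all listed) in √10 steps. After 5 days, nuclei were counted on 4× images. Relative viability is treated-well nuclei count divided by vehicle-well nuclei count, and values are medians of duplicate plates.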

[2] = compound: O=c1[nH]cc(F)c(=O)[nH]1 [5-Fluorouracil] + CC(C)C[C@H](NC(=O)[C@H](Cc1ccccc1)NC(=O)c1cnccn1)B(O)O [Bortezomib] (partner 0.002 µM)
Procedure, shortened: as §1

[3] = compound: CC1=C(CC(=O)O)c2cc(F)ccc2/C1=C\c1ccc([S+](C)[O-])cc1 [Sulindac] + O=C(CCCCCCC(=O)Nc1ccccc1)NO [Vorinostat] (partner 1 µM)
Procedure, shortened: as §1

[4] = compound: O=c1[nH]cc(F)c(=O)[nH]1 [5-Fluorouracil] + Nc1nc2[nH]cc(CCc3ccc(C(=O)N[C@@H](CCC(=O)O)C(=O)O)cc3)c2c(=O)[nH]1 [Pemetrexed] (partner 0.2 µM)
Procedure, shortened: as §1

[5] = compound: O=c1[nH]cc(F)c(=O)[nH]1 [5-Fluorouracil] + O=C(c1cc(Cc2n[nH]c(=O)c3ccccc23)ccc1F)N1CCN(C(=O)C2CC2)CC1 [Olaparib] (partner 8 µM)
Procedure, shortened: as §1

**Q.** With UMC-11 as the cell line, how does the relative viability ([1]; first compound 0.02 µM) read?
**A.** 0.983

**Q.** And the relative viability ([1]; first compound 0.2 µM)?
**A.** 0.728

**Q.** And the relative viability ([1]; first compound 0.6325 µM)?
**A.** 0.518

**Q.** What about the relative viability ([1]; first compound 2 µM) of the same cell line?
**A.** 0.396

**Q.** And the relative viability ([2]; first compound 0.02 µM)?
**A.** 0.674

**Q.** And the relative viability ([2]; first compound 0.2 µM)?
**A.** 0.542

**Q.** What about the relative viability ([2]; first compound 0.6325 µM) of the same cell line?
**A.** 0.368

**Q.** And the relative viability ([2]; first compound 2 µM)?
**A.** 0.35

**Q.** And the relative viability ([3]; first compound 0.08 µM)?
**A.** 0.342

**Q.** What about the relative viability ([3]; first compound 0.253 µM) of the same cell line?
**A.** 0.411

**Q.** And the relative viability ([3]; first compound 0.8 µM)?
**A.** 0.374

**Q.** And the relative viability ([3]; first compound 2.53 µM)?
**A.** 0.338

**Q.** What about the relative viability ([3]; first compound 8 µM) of the same cell line?
**A.** 0.386

**Q.** And the relative viability ([4]; first compound 0.02 µM)?
**A.** 0.807

**Q.** What about the relative viability ([4]; first compound 0.2 µM) of the same cell line?
**A.** 0.563

**Q.** And the relative viability ([4]; first compound 0.6325 µM)?
**A.** 0.508

**Q.** And the relative viability ([5]; first compound 0.02 µM)?
**A.** 0.409

**Q.** And the relative viability ([5]; first compound 0.2 µM)?
**A.** 0.37

**Q.** And the relative viability ([5]; first compound 0.6325 µM)?
**A.** 0.334
